Biological target: T1, human CD73 (Homo sapiens, UniProt P21589)
T1 sequence (P21589 27-549): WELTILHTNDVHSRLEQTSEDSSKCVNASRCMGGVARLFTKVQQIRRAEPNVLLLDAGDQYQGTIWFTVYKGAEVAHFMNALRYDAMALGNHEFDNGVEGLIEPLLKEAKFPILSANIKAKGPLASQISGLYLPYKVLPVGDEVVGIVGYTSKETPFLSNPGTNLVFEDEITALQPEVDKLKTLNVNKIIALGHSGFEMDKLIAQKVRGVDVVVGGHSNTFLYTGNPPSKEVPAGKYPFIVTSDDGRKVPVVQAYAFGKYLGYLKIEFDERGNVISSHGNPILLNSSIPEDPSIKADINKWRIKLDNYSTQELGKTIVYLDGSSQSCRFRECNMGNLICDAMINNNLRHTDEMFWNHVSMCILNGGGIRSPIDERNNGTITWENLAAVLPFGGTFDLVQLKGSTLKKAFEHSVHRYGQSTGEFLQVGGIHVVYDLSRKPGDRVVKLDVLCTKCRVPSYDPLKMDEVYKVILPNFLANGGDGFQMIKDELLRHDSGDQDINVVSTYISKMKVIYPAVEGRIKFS
Experiment: Inhibition of Ecto-5′-nucleotidase (CD73) activity in CHO-CD73 cells, phosphate release from AMP
Type: cell-based
Conditions: CHO-K1 cells stably transfected with human CD73; 25 μM AMP; 50 minutes, 37° C.; read-out: Potency: CD73 IC50

SMILES	IC50 [nM]
CC(c1ccc(C(N)=O)cc1)n1nccc1-c1ccc2nnn(-c3ccc4cn[nH]c4c3)c2c1 (stereo not shown) [Example 118]	> 1000
COc1ccc(Cn2nccc2-c2ccc3nnn(-c4ccc5cn[nH]c5c4)c3c2)cc1 [Example 55]	100 to 1000
Fc1ccc(Cn2nccc2-c2cc(Cl)c3nnn(-c4ccc5cn[nH]c5c4)c3c2)nc1 [Example 73]	< 100
O=c1[nH]c2cc(-n3nnc4c(F)cc(-c5ccnn5Cc5ccc(Cl)cn5)cc43)ccc2o1 [Example 161]	> 1000
O=c1[nH]c2ccc(-n3nnc4c(F)cc(-c5ccnn5Cc5ccc(F)cn5)cc43)cc2[nH]1 [Example 174]	> 1000
COc1cc(F)ccc1Cn1nccc1-c1cc(F)c2nnn(-c3ccc4[nH]c(=O)[nH]c4c3)c2c1 [Example 236]	> 1000
Fc1c(-c2ccnn2Cc2ccccc2)ccc2nnn(-c3ccc4cn[nH]c4c3)c12 [Example 130]	> 1000
CC(c1ccc(C#N)cc1)n1nccc1-c1cc(F)c2nnn(-c3ccc4cn[nH]c4c3)c2c1 (stereo not shown) [Example 116]	100 to 1000
Clc1ccc(Cn2nccc2-c2ccn3nnc(-c4ccc5cn[nH]c5c4)c3c2)c(Cl)c1 [Example 126]	< 100
FC(F)(F)c1ccccc1Cn1nccc1-c1cc(Cl)c2nnn(-c3ccc4cn[nH]c4c3)c2c1 [Example 102]	100 to 1000
N#Cc1ccc(Cn2nccc2-c2cc3c(cn2)nnn3-c2ccc3[nH]c(=O)[nH]c3c2)cc1 [Example 154]	100 to 1000
Fc1ccc(Cn2nccc2-c2cnc3cnn(-c4ccc5cn[nH]c5c4)c3c2)nc1 [Example 181]	> 1000
Clc1ccc(Cn2nccc2-c2cc3c(cn2)nnn3-c2ccc3cn[nH]c3c2)c(Cl)c1 [Example 142]	< 100
Clc1ccc(Cn2nccc2-c2cnc3cnn(-c4ccc5cn[nH]c5c4)c3c2)nc1 [Example 164]	100 to 1000
Clc1cnc(Cn2nccc2-c2ccc3nnn(-c4ccc5cn[nH]c5c4)c3c2)c(Cl)c1 [Example 79]	100 to 1000
FC(F)(F)c1ccc(Cn2nccc2-c2cc(Cl)c3nnn(-c4ccc5cn[nH]c5c4)c3c2)nc1 [Example 108]	100 to 1000

SMILES	IC50 [nM]
Fc1cc(-c2ccnn2Cc2ccccc2)cc2c1nnn2-c1cc2[nH]ncc2cn1 [Example 138]	> 1000
Nc1cc(-n2nnc3c(Cl)cc(-c4ccnn4Cc4ccc(Cl)cc4Cl)cc32)ccn1 [Example 139]	100 to 1000
Clc1cc(-c2ccnn2Cc2ccccn2)cc2c1nnn2-c1ccc2cn[nH]c2c1 [Example 45]	100 to 1000
Fc1cc(-c2ccnn2Cc2ccc(-c3ncco3)cc2)cc2c1nnn2-c1ccc2cn[nH]c2c1 [Example 177]	> 1000
N#Cc1ccc(Cn2nccc2-c2cnc3c(N)nn(-c4ccc5cn[nH]c5c4)c3c2)cc1 [Example 218]	100 to 1000
O=c1[nH]c2ccc(-n3nnc4cnc(-c5ccnn5Cc5ccc(Cl)c(F)c5)cc43)cc2[nH]1 [Example 194]	100 to 1000
N#Cc1ccc(Cn2nccc2-c2cc(F)c3nnn(-c4ccc5c(c4)NC(=O)C5)c3c2)cc1 [Example 156]	> 1000
O=C(O)c1n[nH]c2cc(-n3nnc4c(Cl)cc(-c5ccnn5Cc5ccc(Cl)cc5Cl)cc43)ccc12 [Example 127]	> 1000
N#Cc1ccc(Cn2nccc2-c2cc(Cl)c3nnn(-c4ccc5[nH]c(=O)[nH]c5c4)c3c2)c(F)c1 [Example 228]	< 100
CS(=O)(=O)c1cc(Cl)ccc1Cn1nccc1-c1cc(F)c2nnn(-c3ccc4[nH]c(=O)[nH]c4c3)c2c1 [Example 210]	100 to 1000
N#Cc1ccc(Cn2nccc2-c2cnc3cnn(-c4ccc5[nH]c(=O)[nH]c5c4)c3c2)cc1 [Example 180]	> 1000
O=c1[nH]c2ccc(-n3nnc4ccc(-c5ccnn5Cc5ccc(F)cn5)cc43)cc2[nH]1 [Example 203]	100 to 1000
CC(C)c1ccc(Cn2nccc2-c2cc(Cl)c3nnn(-c4ccc5cn[nH]c5c4)c3c2)cc1 [Example 51]	100 to 1000
O=c1[nH]c2ccc(-n3nnc4c(F)cc(-c5ccnn5Cc5ccc6cn[nH]c6c5)cc43)cc2[nH]1 [Example 195]	100 to 1000
O=C1CCC(c2cc(F)c3nnn(-c4ccc5cn[nH]c5c4)c3c2)N1Cc1ccc(Cl)cc1Cl (stereo not shown) [Example 143]	> 1000
O=c1[nH]c2ccc(-n3nnc4c(F)cc(-c5ccnn5Cc5ccc(Cl)cc5F)cc43)cc2[nH]1 [Example 191]	100 to 1000

Next, values leading:

IC50 [nM]	SMILES
100 to 1000	O=c1[nH]c2ccc(-n3nnc4c(Cl)cc(-c5ccnn5Cc5ccncc5F)cc43)cc2[nH]1 [Example 238]
100 to 1000	COc1ccc(Cn2nccc2-c2cc(F)c3nnn(-c4ccc5[nH]c(=O)[nH]c5c4)c3c2)c(F)c1 [Example 245]
100 to 1000	CC(c1ccc(C#N)cc1F)n1nccc1-c1cc2c(cc1F)nnn2-c1ccc2cn[nH]c2c1 (stereo not shown) [Example 412]
100 to 1000	N#Cc1ccc(Cn2nccc2-c2cc3c(cn2)nnn3-c2ccc3c(=O)[nH][nH]c3c2)cc1 [Example 346]
100 to 1000	N#Cc1ccc(Cn2nccc2-c2cc(F)c3nnn(-c4ccc5[nH]c(=O)[nH]c5c4)c3c2)c(S(=O)(=O)c2ccccc2)c1 [Example 291]
< 100	N#Cc1ccc(Cn2nccc2-c2cc3c(cc2Cl)nnn3-c2ccc3cn[nH]c3c2)c(F)c1 [Example 400]
100 to 1000	N#Cc1ccc(Cn2nccc2-c2cc(F)c3nnn(-c4ccc5[nH]c(=O)[nH]c5c4)c3c2)c(OC(F)(F)F)c1 [Example 292]
100 to 1000	CC(c1ccc(C#N)cc1F)n1nccc1-c1cc(Cl)c2nnn(-c3ccc4[nH]c(=O)[nH]c4c3)c2c1 (stereo not shown) [Example 418]
100 to 1000	O=c1[nH]c2ccc(-n3nnc4c(F)cc(-c5ccnn5Cc5nc6ccccc6[nH]5)cc43)cc2[nH]1 [Example 243]
> 1000	N#Cc1ccc(Cn2nccc2-c2cn3c(-c4ccc5[nH]c(=O)[nH]c5c4)cnc3cn2)cc1 [Example 311]
100 to 1000	Clc1cccc(-n2nccc2-c2cc3c(cc2Cl)nnn3-c2ccc3cn[nH]c3c2)c1 [Example 404]
> 1000	CC(Cn1nccc1-c1cc(F)c2nnn(-c3ccc4cn[nH]c4c3)c2c1)c1ccccc1 (stereo not shown) [Example 385]
> 1000	COc1cc(F)ccc1Cn1nccc1-c1cc2c(cn1)nnn2-c1ccc2[nH]c(=O)[nH]c2c1 [Example 237]
100 to 1000	COc1cc(Cl)ccc1Cn1nccc1-c1cc(F)c2nnn(-c3ccc4[nH]c(=O)[nH]c4c3)c2c1 [Example 284]
100 to 1000	N#Cc1ccc(Cn2nccc2-c2cnc3c(CO)nn(-c4ccc5[nH]c(=O)[nH]c5c4)c3c2)cc1 [Example 336]
100 to 1000	Cc1cccc(-n2ncc(Cl)c2-c2cc(F)c3nnn(-c4ccc5cn[nH]c5c4)c3c2)c1 [Example 413]
100 to 1000	N#Cc1ccc(C(CO)n2nccc2-c2cc(F)c3nnn(-c4ccc5cn[nH]c5c4)c3c2)cc1 (stereo not shown) [Example 419]
100 to 1000	N#Cc1ccc(Cn2ncc(Cl)c2-c2cc(F)c3nnn(-c4ccc5[nH]c(=O)[nH]c5c4)c3c2)cc1 [Example 326]

IC50 [nM]	SMILES
< 100	N#Cc1ccc(Cn2nccc2-c2cnc3c(N)nn(-c4cc5[nH]ncc5cc4F)c3c2)cc1 [Example 364]
100 to 1000	N#Cc1ccc(Cn2nccc2-c2cnc3c(N)nn(-c4cc(F)c5[nH]c(=O)[nH]c5c4)c3c2)c(F)c1 [Example 337]
100 to 1000	N#Cc1ccc(Cn2nccc2-c2cc(F)c3nnn(-c4ccc5[nH]c(=O)[nH]c5c4)c3c2)c(F)c1 [Example 239]
100 to 1000	N#Cc1ccc(Cn2nccc2-c2cc(F)c3nnn(-c4ccc5[nH]c(=O)[nH]c5c4)c3c2)c(Br)c1 [Example 267]
100 to 1000	Cc1cccc(-n2nccc2-c2cc3c(cc2Cl)nnn3-c2ccc3cn[nH]c3c2)c1 [Example 411]
> 1000	COCc1n[nH]c2cc(-n3nnc4c(F)cc(-c5ccnn5Cc5ccc(C#N)cc5)cc43)ccc12 [Example 353]
< 100	[O-][n+]1cc(Cl)ccc1Cn1nccc1-c1cc(Cl)c2nnn(-c3ccc4cn[nH]c4c3)c2c1 [Example 366]
100 to 1000	Cc1ccc(Cn2nccc2-c2cc(Cl)c3nnn(-c4ccc5[nH]c(=O)[nH]c5c4)c3c2)c(F)c1F [Example 253]
> 1000	N#Cc1cc(F)c(Cn2nccc2-c2cc(F)c3nnn(-c4ccc5[nH]c(=O)[nH]c5c4)c3c2)c(Cl)c1 [Example 276]
100 to 1000	O=c1[nH]c2ccc(-n3nnc4c(Cl)cc(-c5ccnn5Cc5cc(F)c(Cl)cc5Cl)cc43)cc2[nH]1 [Example 256]
> 1000	Cc1ncc(Cn2nccc2-c2cc(Cl)c3nnn(-c4ccc5[nH]c(=O)[nH]c5c4)c3c2)o1 [Example 244]
< 100	N#Cc1ccc(Cn2nccc2-c2cc(Cl)c3nnn(-c4ccc5[nH]c(=O)[nH]c5c4)c3c2)c(Cl)c1 [Example 250]
> 1000	CS(=O)(=O)Nc1cc(Cl)ccc1Cn1nccc1-c1cc(F)c2nnn(-c3ccc4[nH]c(=O)[nH]c4c3)c2c1 [Example 251]
> 1000	N#Cc1ccc(Cn2nccc2-c2cnc3c(c2)c(-c2ccc4cn[nH]c4c2)nn3CCc2ccccc2)cc1 [Example 342]
> 1000	Nc1nn(-c2ccc3[nH]c(=O)[nH]c3c2)c2cc(-c3ccnn3Cc3ccc(Cl)cn3)cnc12 [Example 295]
100 to 1000	O=c1[nH]c2ccc(-n3nnc4c(F)cc(-c5ccnn5Cc5cccc(F)c5Cl)cc43)cc2[nH]1 [Example 282]
100 to 1000	N#Cc1ccc(Cn2nccc2-c2cc(F)c3nnn(-c4ccc5c(N)n[nH]c5c4)c3c2)cc1 [Example 345]

Source: patent US11931343B2 (ARCUS BIOSCIENCES, INC., priority 2018, dated 2024)
